Measured values taken from US11161819B2, “Substituted tetrahydroisoquinoline compounds useful as GPR120 agonists” (Merck Sharp & Dohme Corp., priority 2016, dated 2021).

Molecular target: T1, human GPR120 (Homo sapiens, UniProt Q5NUL3)
T1 construct: expressed in transfected cells
T1 sequence (Q5NUL3 1-361): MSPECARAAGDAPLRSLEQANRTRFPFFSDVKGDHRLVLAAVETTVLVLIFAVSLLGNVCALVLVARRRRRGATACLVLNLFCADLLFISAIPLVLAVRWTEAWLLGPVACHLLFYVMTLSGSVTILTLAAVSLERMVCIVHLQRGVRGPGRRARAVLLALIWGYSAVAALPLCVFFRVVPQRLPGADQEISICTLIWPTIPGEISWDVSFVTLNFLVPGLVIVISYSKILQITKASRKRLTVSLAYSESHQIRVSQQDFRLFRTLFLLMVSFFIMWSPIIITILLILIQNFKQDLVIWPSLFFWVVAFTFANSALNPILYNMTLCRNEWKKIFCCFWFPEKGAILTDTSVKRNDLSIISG
Assay: Human GPR120 IP1 Assay (inositol phosphate turnover, CisBio IP-One kit)
Format: cell-based
Conditions: IP1 accumulation in CHO-K1 cells stably expressing the short form of human GPR120; 60 min compound incubation; 4-parameter fit; read-out: hGPR120 EC50
Text: Human GPR120 IP1 Assay Principle
The binding of small molecule agonists to the G-protein-coupled receptor GPR120 activates phospholipase C, and leads to the generation of inositol 1,4,5-trisphosphate (InsP3 or IP3). IP3 is subsequently de-phosphorylated to IP1, which accumulates in cells and is stable in the presence of lithium chloride.
In the present method, agonist-induced activation of the human GPR120 receptor was monitored by measuring the accumulation of IP1 in CHO-K1 cells that were stably expressing the short form of human GPR120 (Accession #NM_001195755). Following agonist addition, GPR120 activation and subsequent accumulation of IP1 was measured using a homogeneous Time Resolved Fluorescence-based ELISA commercially available from CisBio (IP-one ELISA Kit). The IP-One ELISA was a competitive immunoassay which uses IP1 labeled with […] and a terbium cryptate-labeled anti-IP1 monoclonal antibody. […] The signal loss was then back calculated to IP1 concentration using an IP1 standard curve. Determination of IP1 concentration was a direct measure of GPR120 activation and was used to determine compound potency (EC50).
Generation of GPR120-Expressing Cells:
Human GPR120 stable cell-lines were generated in CHO cells. The expression plasmids were transfected using lipofectamine (Life Technologies) following manufacturer's instructions. Stable cell-lines were generated following drug selection and single cell cloning.
Inositol Phosphate Turnover (IP1) Assay:
The assay was performed in 384-well format. CHO cells stably expressing human GPR120 were plated at […] per well in growth medium (DMEM/F12, 10% fetal calf serum). Cell plates were then incubated 16 hours at 37 degrees in a 5% CO2 incubator. Measurement of Inositol Phosphate Turnover (IP1) was performed using the CisBio IP-One kit (Part number 62IPAPEB). After the 16 hour incubation, the growth media was removed by centrifugation using the BlueWasher (AusWasher GUI Ver. v1.0.1.8) Protocol #21-“Light Dry” and 10 ul of stimulation buffer (prepared as described in the kit) was added to each well. In a separate plate, compounds were diluted in DMSO (200-fold over the final concentration in the assay well) and 50 nl was acoustically transferred to the appropriate well in the assay cell plate. The plates were then incubated for 60 minutes at 37 degrees in a 5% CO2 incubator. 10 ul of detection buffer (also prepared as described in the IP-One kit) was added to each well and the plates were incubated at room temperature for 60 minutes in the dark. The plates were then read in a Perkin Elmer EnVision or equivalent reader able to measure FRET. Fluorescent ratio of emission at 665 and 620 nm was then converted to the IP1 concentration by back calculating from an IP1 standard curve prepared at the time of the assay. The data was normalized to % activity using a reference compound, and the EC50 values were determined using a standard 4-parameter fit.

Row | EC50 | Compound
1 | 798 nM | COc1cc(C#N)c(N2CCc3cc(CCC(=O)O)ccc3C2)cc1OC1CCC1 [Example 42, 3-{2-[2-cyano-5-(cyclobutyloxy)-4-methoxyphenyl]-1,2,3,4-tetra-hydroisoquinolin-6-yl}propanoic acid]
2 | 1470 nM | COc1ccc(-n2nc(C)c(C#N)c2N2CCc3cc(CCC(=O)O)ccc3C2)cc1 [Example 43, 3-{2-[4-cyano-1-(4-methoxy-phenyl)-3-methyl-1H-pyrazol-5-yl]-1,2,3,4-tetrahydroisoquinolin-6-yl}propanoic acid]
3 | 2360 nM | N#Cc1c(F)cc(OC(F)(F)F)cc1N1CCc2cc(CCC(=O)O)ccc2C1 [Example 44, 3-{2-[2-cyano-3-fluoro-5-(trifluoro-methoxy)phenyl]-1,2,3,4-tetra-hydroisoquinolin-6-yl}propanoic acid]
4 | 2290 nM | O=C(O)CCc1ccc2c(c1)CCN(c1cc(OC3CCC3)cc(F)c1Cl)C2 [Example 45, 3-{2-[2-chloro-5-(cyclobutyloxy)-3-fluorophenyl]-1,2,3,4-tetrahydro-isoquinolin-6-yl}propanoic acid]
5 | 91 nM | Cc1ccc(-n2nc(C)c(F)c2N2CCc3cc(CCC(=O)O)ccc3C2)cc1 [Example 47, 3-{2-[4-fluoro-3-methyl-1-(4-methylphenyl)-1H-pyrazol-5-yl]-1,2,3,4-tetrahydroisoquinolin-6-yl} propanoic acid]
6 | 596 nM | CO[C@H]1C[C@H](Oc2ccc(C#N)c(N3CCc4cc(CCC(=O)O)ccc4C3)c2)C1 [Example 48, 3-(2-{2-cyano-5-[(trans-3-methoxy-cyclobutyl)oxy]phenyl}-1,2,3,4-tetrahydroisoquinolin-6-yl)-propanoic acid]
7 | 223 nM | CC1c2ccc(CCC(=O)O)cc2CCN1c1cc(OC2CCC2)cc(F)c1F (stereo not drawn) [Example 49, 3-{2-[5-(cyclobutyloxy)-2,3-difluorophenyl]-1-methyl-1,2,3,4-tetrahydroisoquinolin-6-yl}-propanoic acid]
8 | 348 nM | O=C(O)CCc1ccc2c(c1)CCN(Cc1c(-c3ccc(Cl)cc3)nsc1C(F)(F)F)C2 [Example 50, 3-(2-{[3-(4-chlorophenyl)-5-(trifluoromethyl)isothiazol-4-yl]methyl}-1,2,3,4-tetrahydroiso-quinolin-6-yl)propanoic acid]
9 | 317 nM | O=C(O)CCc1cc(F)c2c(c1)CCN(c1cc(OC(F)(F)F)ccc1F)C2 [Example 51, 3-{8-fluoro-2-[2-fluoro-5-(trifluoromethoxy)phenyl]-1,2,3,4-tetrahydroisoquinolin-6-yl}-propanoic acid]
10 | 510 nM | CC(Cc1ccc2c(c1)CCN(c1cc(OC(F)(F)F)ccc1F)C2)C(=O)O (stereo not drawn) [Example 52]
11 | 1680 nM | O=C(O)CCc1ccc2c(c1)CCN(c1cc(OC3CCC3)cc(Cl)c1F)C2 [Example 54, 3-{2-[3-chloro-5-(cyclobutyloxy)-2-fluorophenyl]-1,2,3,4-tetrahydro-isoquinolin-6-yl}propanoic acid]
12 | 25 nM | N#Cc1c(F)cc(OC2CCC2)cc1N1CCc2cc(CCC(=O)O)ccc2C1 [Example 55, 3-{2-[2-cyano-5-(cyclobutyloxy)-3-fluorophenyl]-1,2,3,4-tetrahydro-isoquinolin-6-yl}propanoic acid]
13 | 40 nM | O=C(O)CCc1ccc2c(c1F)CCN(c1cc(C(F)(F)C3CCC3)ccc1F)C2 [Example 56, 3-(2-(5-(cyclobutyldifluoromethyl)-2-fluorophenyl)-5-fluoro-1,2,3,4-tetrahydro-isoquinolin-6-yl)propanoic acid]
14 | 472 nM | Cc1cc2c(c(F)c1CCC(=O)O)CCN(c1cc(OC(F)(F)F)ccc1F)C2 [Example 58, 3-(5-fluoro-2-(2-fluoro-5-(trifluoromethoxy)phenyl)-7-methyl-1,2,3,4-tetra-hydroisoquinolin-6-yl)propanoic acid]
15 | 1630 nM | O=C(O)CCc1ccc2c(c1F)CCN(c1c(-c3ccc(Cl)cc3)nsc1C(F)(F)F)C2 [Example 59, 3-(2-(3-(4-chlorophenyl)-5-(trifluoromethyl)isothiazol-4-yl)-5-fluoro-1,2,3,4-tetrahydroisoquinolin-6-yl)propanoic acid]
